Patent publication US20140335050A1, “METHODS, COMPOSITIONS, AND KITS FOR THE TREATMENT OF CANCER” (The General Hospital Corporation, priority 2011, published 2014)

Tests used:
Format in all cases: cell-based, human
[1] = test system: MU89 MART::EGFP cell line; assay: Melan-A/MART-1 promoter-driven EGFP reporter, kinetics by flow cytometry; conditions: MU89 MART::EGFP (FIG. 11)
Procedure: FIG. 11 is a set of four graphs showing the kinetics of Melan-A/MART-1 increase. […] The same number of cells per well were plated in each well of a 24 well plate and drug was added on day zero. Each day cells were collected and assayed for that time point. Control untreated cells are shown for comparison. The data are from one representative experiment.
A kinetic analysis was performed to determine the effect of Hsp90 inhibition on Melan-A/MART-1 promoter activity over time. […] Reporter activity increases steadily for the first 72 hours of Hsp90 inhibition, and then plateaus. The need for continued presence of Hsp90 inhibitors in order for them to be effective (i.e. whether the drug can be removed after short exposure, or whether it must it be continually present) was assessed. […] To achieve full signal enhancement, it is desirable to retain the drug for at least 48 hours, after which the effect remains constant or slightly decreases.
The generation and application of EGFP reporter cells has been previously described. Briefly, a 1200 base pair human genomic DNA segment encompassing the Melan-A/MART-1 promoter was used to generate a construct driving expression of the EGFP reporter gene. Stable transfectants with this construct were generated in the low-antigen cell line A375 and the high-antigen line MM96L+ and MU89. The EGFP expression response patterns of these cells to IFN-beta and MAP kinase inhibitors recapitulates the antigen up-regulation of endogenous Melan-A/MART-1 induced by these agents.
(§1) Intracellular staining and flow cytometric analyses of cytoplasmic Melan-A/MART-1, and gp100 expression were performed as described previously. Cells were fixed with 1% formaldehyde, permeabilized with 0.1% saponin, stained with monoclonal antibodies to melanocyte antigens. Antibodies were obtained with specificity for: Melan-A/MART-1 from Vector Labs (Burlingame, Calif.); gp100/HMB45 from DakoCytomation (Carpinteria, Calif.) and then visualized with goat anti-mouse FITC-conjugated secondary antibody from Invitrogen (Frederick, Md.). The level of EGFP was determined by flow cytometry of unfixed cells washed and resuspended in 1×PBS. Surface staining of MHC Class I was carried out using the antibody W6/32 on cells harvested with Cell Stripper from MediaTech Inc. (Manassas, Va.) and carried out on ice.

[2] = test system: MALME-3M melanoma cell line; assay: Antibody staining and flow cytometry (intracellular Melan-A/MART-1, gp100, TRP-2; surface MHC Class I)
Procedure: (§2) Cells were fixed with 1% formaldehyde, permeabilized with 0.1% saponin, stained with monoclonal antibodies to melanocyte antigens. Antibodies were obtained with specificity for: MART-1 from Vector Labs (Burlingame, Calif.); gp100 HMB45 from DakoCytomation (Carpinteria, Calif.) and then visualized with goat anti-mouse FITC-conjugated secondary antibody from Invitrogen (Fredrick, Md.). The level of EGFP was determined by flow cytometry of unfixed cells that were washed and resuspended in 1×PBS.
(§3) Cells were plated at a density of 1×10^5 in 1 ml of medium in a 24-well plate and cultured for varying times as indicated in results. […] After incubation, cells were collected by trypsinization and then evaluated by flow cytometry.
as §1

[3] = test system: U-118 MG glioma cell line; assay: Antibody staining and flow cytometry (intracellular gp100; surface MHC Class I/II); conditions: U-118 MG; 3 days; IFN-beta 5000 Units/ml, 17-AEP 1.0, PU-H71 0.3, CCT018159 10.0 μg/ml
Procedure: as §2, §3, §1
Cell were seeded at 1×10^6 cells in a T25 flask with 10 ml of media for the 4 day IFN-beta pre-treatments. Cells were then harvested and plated in 24 well plate at 1×10^5 cells per well in 1 ml of media for 3 day treatments.
For surface staining of HLA Class I and II antigens, cells were harvested using CellStripper™ from Mediatech (Manassas, Va.). All staining steps were performed on ice. Following a first incubation with antibody to Class I (W6/32) or Class II (L243) for 30 minutes. Stained cells were washed twice with cold PBS and then stained with a goat anti-mouse FITC secondary antibody to allow for quantitative analysis by flow cytometry. For evaluation of cytoplasmic antigens, including Melan-A/MART-1 and gp100, cells were first fixed in paraformaldehyde and permeabilized with saponin as previously described. Staining for cytoplasmic antigens was carried out at room temperature (22° C.).

U-87 MG glioma cell line = assay: Antibody staining and flow cytometry (intracellular gp100; surface MHC Class I); conditions: U-87 MG; 3 days; IFN-beta 5000 Units/ml, 17-AEP 0.5, PU-H71 0.3, CCT018159 5.0 μg/ml
Procedure: as §2, §3, §1

[4] = MALME-3M, 3 days, IFN-beta 5000 Units/ml, 17-AEP 1.0, PU-H71 0.3, CCT018159 10.0 μg/ml

CO[C@H]1/C=C\C=C(/C)C(=O)NC2=CC(=O)C(NCCN3CCCC3)=C(C[C@@H](C)C[C@H](OC)[C@H](O)[C@@H](C)/C=C(\C)[C@@H]1OC(N)=O)C2=O [17-AEP]
Time at which the fluorescent reporter signal is significantly enhanced (as early as) [1]: 2 days
Class I, geometric mean of surface staining (W6/32) [2, 4]: 105
MART-1, geometric mean of intracellular staining [2, 4]: 205
TRP-2, geometric mean of intracellular staining [2, 4]: 256
gp100, geometric mean of intracellular staining [2, 4]: 839
MHC Class I, geometric mean of surface staining (W6/32) ([2]; MALME, three days, IFN-β 5000 Units/ml): 105
Class I, geometric mean of surface staining (W6/32) [3]: 117
gp100, geometric mean of intracellular staining [3]: 61
Class I, geometric mean of surface staining (W6/32) (U-87 MG glioma cell line): 66
gp100, geometric mean of intracellular staining (U-87 MG glioma cell line): 51
